{"source": "patent US20220142967A1", "about": "“Methods and Compositions for the Treatment of Multiple Sclerosis” (SYMBIONYX PHARMACEUTICALS INC, priority 2018, published 2022)", "key": {"cultured astrocytes": {"system": "cultured astrocytes", "assay": "RNA-seq of cultured astrocytes compared with MS patient white matter astrocytes (GSE83670)", "type": "cell-based, human", "settings": "cultured astrocytes vs. LCM-dissected MS patient astrocytes", "experimental": "Previously, Waller et al. 2016 (J Neuroimmunol 299:139-146) used laser capture microdissection (LCM) to isolate astrocytes from normal appearing white matter in MS patients and CTL subjects (GEO dataset GSE83670; PMID: 27125112).\ncDNA sequencing was performed by the University of Michigan sequencing core facility (50 cycle single end Illumina HiSeq 2000). The FASTX-Toolkit was used to filter reads by removing low quality sequences and initial quality assessments were performed using FastQC. Quality-filtered reads were mapped to the human genome (hg38/GRCh38, UCSC) using tophat2 with default settings, except multi-mapping of reads to multiple genome locations was disallowed (settings: -g 1 —no-coverage-search). The hg38/GRCh38 genome is the most recent release available from UCSC. HTSeq was used to tabulate the number of reads mapping to each genome feature and Cufflinks was used to calculate FPKM estimates and associated confidence intervals. RSeQC was used to assess quality of mapping and calculate the percentage of mapped reads. The negative binomial model (edgeR) was used to evaluate differential expression, with read counts normalized using the weighted trimmed mean of M-values method, and dispersions estimated using the Cox-Reid (CR)-adjusted likelihood approach. Differential expression analyses were performed using genes with detectable expression in at least 1 of 4 samples involved in a given comparison. A gene was considered to have detectable expression in a sample if the count per million mapped reads (cpm) estimate was greater than 0.20 and if the lower bound of the FPKM 95% confidence interval was greater than zero.\nFIG. 3 presents in scatterplot and histogram format the results of the study on the astrocytes. Scatterplots (A) and (D) compare fold change (FC) estimates in DMF-treated (A) and IDMF-treated (D) astrocytes to LCM-dissected astrocytes in MS patients and healthy controls (CTLs). Each point represents a protein-coding gene and the light colored ellipses outline the 90% of genes closest to the bivariate mean based upon the Mahalanobis distance. The Spearman rank correlation coefficient estimate is shown (upper-left). The proportion of genes within each quadrant is indicated in the upper margin (P<0.05, Fisher's exact test), wherein the quadrants are defined by a vertical and horizontal line through the “1” in each axis with the proportion corresponding, left to right to the upper left, the upper right, the lower right and lower left quadrants, respectively. Gene set overlap is presented in (B), (C), (E) and (F) wherein genes within each set were altered with a P<0.05 threshold. P-values from the test of overlap significance are shown (bottom margin, Fisher's exact test). […]"}, "human fetal astrocytes": {"system": "human fetal astrocytes", "assay": "A1 v A2 marker activation, RNA-seq of H2O2-stimulated astrocytes", "type": "cell-based", "settings": "2.5 μM, 24 hrs, H2O2 (50 μM) stimulated", "experimental": "The treated cells were stimulated with H2O2 (50 μM) for 20 min and the RNA extracted 1 day later and sequenced using the Illumina HiSeq 2000 with an average of 39.3 million reads per sample. Reads were mapped to the GHch38/hg38 genome. 13,968 protein-coding genes had detectable expression on average among the 6 samples. Differentially expressed genes (DEGs) were identified using negative binomial models with FDR threshold of <0.10 and fold change (FC) criteria (FC>1.30 or FC<0.77). Gene set enrichment testing was performed using public database annotations. Motif enrichment with respect to DEG up-stream regions was characterized using semiparametric generalized additive logistics models. The overlap between the identified DEGs and MS-associated genes, i.e., genes from MS patients and genes linked to inflammatory (A1) and ischemic (A2) astrogliosis."}, "[1]": {"target": "T1, carboxylesterase 2 (CES2) (Homo sapiens, UniProt O00748)", "T1 sequence (O00748 27-559)": "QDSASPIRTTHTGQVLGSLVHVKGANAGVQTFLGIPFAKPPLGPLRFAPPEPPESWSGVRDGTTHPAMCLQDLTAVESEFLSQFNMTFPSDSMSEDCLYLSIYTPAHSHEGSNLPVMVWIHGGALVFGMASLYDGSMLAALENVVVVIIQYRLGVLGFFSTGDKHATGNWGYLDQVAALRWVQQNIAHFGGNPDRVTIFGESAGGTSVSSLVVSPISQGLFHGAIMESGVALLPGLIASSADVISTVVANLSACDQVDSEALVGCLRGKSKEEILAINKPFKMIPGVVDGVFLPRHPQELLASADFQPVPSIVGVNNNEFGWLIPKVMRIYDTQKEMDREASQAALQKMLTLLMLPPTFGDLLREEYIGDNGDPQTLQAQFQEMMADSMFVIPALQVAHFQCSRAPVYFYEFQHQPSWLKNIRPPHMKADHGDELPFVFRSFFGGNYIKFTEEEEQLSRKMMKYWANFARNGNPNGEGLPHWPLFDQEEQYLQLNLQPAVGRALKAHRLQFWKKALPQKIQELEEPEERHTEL", "assay": "Carboxylesterase hydrolysis IDMF v DMF", "type": "in vitro ADME", "settings": "for remaining parent compound: 1 mg/ml CES2, 37° C., pH 7.4", "experimental": "IDMF and DMF were subjected to carboxylesterase hydrolysis. […] 1 mg/ml carboxylesterase 2 (CES2) was added to each solution and the solutions incubated at 37° C. for the time periods set forth in Table 5. […] Isosorbide was quantified using CAD. Mobile phase used for the study: 0.1% Formic acid in water; B: Methanol. Column: Luna C18 4.6 mm×100 mm, 5 u (Phenomenex). Flow rate: 1.0 ml/min."}, "MS": {"system": "MS", "settings": "MS patients, oral therapy; cited from earlier work"}, "[2]": {"system": "patients with relapsing remitting MS (RRMS)", "settings": "cited from earlier work"}, "[3]": {"system": "human fetal astrocytes derived from cerebral cortex", "assay": "Transcriptome analysis of astrocyte cultures treated with MMF, DRF, IDMF", "type": "cell-based", "settings": "2.5 μM, 24 hours", "experimental": "(§1) Experiments were performed using human fetal astrocytes derived from cerebral cortex (cat. no. 882A-05f; Cell Applications, Sant Diego, Calif.). Cells were grown to subconfluence in human astrocyte growth medium (cat. no. 820-500, Cell Applications). […] Test materials were added to subconfluent cultures at a concentration of 2.5 μM and cells were incubated for 24 hours.\n(§2) RNA was extracted following the incubation period using the RNAeasy Mini Plus kit (Qiagen, Hilden, Germany) and robotic Qiacube Connect station (Qiagen). Samples were shipped on dry ice to the Thermo Fisher Microarray Research Services Laboratory (Santa Clara, Calif.) for transcriptome analysis. RNA quality analysis was performed upon sample receipt using the NanoDrop Lite (Thermo Fisher Scientific, Waltham, Mass.). All samples had 260/280 nm absorbance ratios higher than 1.90, consistent with high-purity RNA.\nIn follow-up to the study of Example, 1 above, genes associated with multiple sclerosis were identified based upon seven established database sources: (1) the NHGRI-EBI genome-wide association (GWA) study catalogue, (2) the Disease Ontology (DO) database, (3) the DisGeNET (curated) database, (4) the DisGeNET (BeFree), (5) MalaCards, (6) the Medical Subject Heading (MESH) database and the KEGG Database. The impact on gene expression of IDMF, MMF and DRF on the key overlapping MS-associated genes was assessed.\nThe specific data for four of the key NFR2 target genes associated with antioxidant and anti-inflammatory effects is presented in FIGS. 7(A) thru 7(D).\nBoth TNFAIP3 and NFKBIA encode inhibitory proteins that suppress the NF-KB pathway. Specifically, TNFAIP3 encodes a deubiquitinating enzyme previously linked to MS by genetic association studies: a TNFAIP3 protein abundance is increased in white matter and cortical lesion astrocytes from MS patient brains. Similarly, NFKBIA (IκBα) encodes an NF-KB inhibitor for which promoter polymorphisms have been associated with MS and abundance of this protein is prominent in macrophage nuclei of MS plaques undergoing active demyelination. ICAM1 encodes an endothelial adhesion molecule that promotes leucocyte extravasation and is associated with the initiation and progression of inflammation as well as the targeting of inflammation in the central nervous system (CNS). FIGS. 9(A), 9(B) and 9(C) show the specific data for these three genes.\nGenetic variants of IFR has been associated with MS and some MS treatments such as glatiramer acetate block cytokine-stimulated IRF1 up-regulation. An assessment was undertaken to assess the relative impact of fumarate esters, namely MMF, DRF and IDMF on IFR motif enrichment."}, "[4]": {"system": "human fetal astrocytes derived from cerebral cortex", "assay": "Comparative RT-PCR evaluation of selected genes in astrocytes", "type": "cell-based", "experimental": "as §1, §2\nThe expression of selected genes was further evaluated using RT-PCR. cDNA was prepared using the AzuraQuant cDNA kit (Azura Genomics, Raynham, Mass.) and PCR reactions were performed using the BioRad iCycler iQ Detection System with Fast Green qPCR Master Mix—Fluor (Azura Genomics). PCR primers were purchased from Realtimeprimers (Elkins Park, Pa.). The ΔΔCt method [Livak K. J. and Schmittgen T. D. Analysis of relative gene expression data using real-time quantitative PCR and the 2(−Delta Delta C(T)) Method. Methods (San Diego, Calif.) 25(4):402-408, 2001]. was used to estimate fold changes with cycle threshold values normalized based upon the expression of glyceraldehyde-3-phosphate dehydrogenase (GAPDH)."}, "[5]": {"target": "T1, carboxylesterase 2 (CES2)", "assay": "Carboxylesterase hydrolysis IDMF v DRF", "type": "in vitro ADME", "settings": "20 μl of 1 mg/ml CES2, 37° C., pH 7.4", "experimental": "20 μl of 1 mg/ml carboxylesterase 2 (CES2) was added to each solution and the solutions incubated at 37° C. for the time periods set forth in Table 5. […] Although tolerable for normal patients, HES is undesirable and detrimental for those individuals have kidney and/or liver issues"}, "[6]": {"system": "patients with Relapsing-Remitting Multiple Sclerosis", "settings": "cited from earlier work"}, "[7]": {"settings": "in vivo; cited from earlier work"}, "[8]": {"settings": "DEFINE and CONFIRM phase III trials"}, "[9]": {"settings": "DRF 462 mg BID, 96-week study (EVOLVE-MS-1)"}}, "note": "Where a name gives a salt, the structure may show the parent alone.", "data": [{"smiles": "COC(=O)/C=C/C(=O)OC", "note": "[DMF, Dimethyl fumarate]", "values": [{"measurement": "correlation of genome-wide expression responses with those observed in MS patients (Spearman r)", "setting": "cultured astrocytes", "value": 0.23}, {"measurement": "ICAM1 expression", "setting": "human fetal astrocytes", "value": "no similar activity"}, {"measurement": "expression of genes linked to A1-polarization", "setting": "human fetal astrocytes", "value": "tended to increase expression"}, {"measurement": "expression of genes linked to A2-polarization", "setting": "human fetal astrocytes", "value": "decreased expression"}, {"measurement": "remaining parent compound", "setting": "[1]; 0 minutes", "value": 1, "unit": "mM"}, {"measurement": "remaining parent compound", "setting": "[1]; 30 minutes", "value": 0.166, "unit": "mM"}, {"measurement": "remaining parent compound", "setting": "[1]; 60 minutes", "value": 0.08, "unit": "mM"}, {"measurement": "remaining parent compound", "setting": "[1]; 120 minutes", "value": 0.014, "unit": "mM"}, {"measurement": "time by which essentially all is hydrolyzed", "setting": "[1]; CES2, 37° C.", "value": "≤ 60", "unit": "min"}, {"measurement": "fraction not hydrolyzed to MMF", "setting": "[1]; within thirty minutes", "value": "about 17%"}, {"measurement": "Disability reduction, %", "setting": "MS", "value": 38, "unit": "%"}, {"measurement": "Gadolinium enhancement reduction, %", "setting": "MS", "value": "74-90%"}, {"measurement": "Relapse rate reduction vs. placebo, %", "setting": "MS", "value": "44-53%"}, {"measurement": "Side effects", "setting": "MS", "value": "Flushing,"}, {"measurement": "T2w lesion reduction, %", "setting": "MS", "value": "71-85%"}, {"measurement": "flushing, most reported adverse effect", "setting": "[2]; [8]", "value": "24-38%"}, {"measurement": "specific gastrointestinal (GI) adverse effects (nausea, vomiting, diarrhea, upper abdominal pain), patients", "setting": "[2]; [8]", "value": "7 to 19", "unit": "%"}, {"measurement": "patients who experienced adverse GI effects", "setting": "[2]; after 1 year, in these trials", "value": 36, "unit": "%"}, {"measurement": "discontinuation of DMF due to GI side effects, patients", "setting": "[2]; real-world settings", "value": "5-19%"}]}, {"smiles": "COC(=O)/C=C/C(=O)OCCN1C(=O)CCC1=O", "note": "[DRF, diroximel fumarate]", "values": [{"measurement": "effect on TNFAIP3, NFKBIA and ICAM1 expression", "setting": "[3]", "value": "effectively no effect"}, {"measurement": "OSGIN1 expression", "setting": "[4]; FIG. 11(B)", "value": "suppression"}, {"measurement": "expression of key MS-associated genes (IL-6, ICAM1, MALT1, TNFAIP3, IRF1, CXCL8)", "setting": "[4]; FIGS. 11(C) through 11(H)", "value": "negligible effect"}, {"measurement": "remaining parent compound", "setting": "[5]; 0 minutes", "value": 1, "unit": "mM"}, {"measurement": "remaining parent compound", "setting": "[5]; 15 minutes", "value": ".652 mM"}, {"measurement": "remaining parent compound", "setting": "[5]; 30 minutes", "value": 0.482, "unit": "mM"}, {"measurement": "remaining parent compound", "setting": "[5]; 60 minutes", "value": 0.273, "unit": "mM"}, {"measurement": "remaining parent compound", "setting": "[5]; 120 minutes", "value": 0.08, "unit": "mM"}, {"measurement": "reduction of number of days with at least moderate GI symptoms", "setting": "[6]; 5-week study, DRF 462 mg BID as compared to DMF 240 mg BID", "value": 46, "unit": "%"}, {"measurement": "discontinuation due to adverse GI effects, patients", "setting": "[6]; [9]", "value": 6.3, "unit": "%"}, {"measurement": "patients who developed adverse GI effects", "setting": "[6]; [9]", "value": 30.9, "unit": "%"}, {"measurement": "RDC-8439 and methanol generated as minor products", "setting": "[7]", "value": "< 10", "unit": "%"}, {"measurement": "fraction metabolized to HES and MMF", "setting": "[7]", "value": "> 90", "unit": "%"}]}, {"smiles": "CCCCCCCCc1ccc(CCC(N)(CO)CO)cc1", "note": "[Fingolimod]", "values": [{"measurement": "Side effects", "setting": "MS", "value": "First dose"}]}, {"smiles": "C/C(O)=C(\\C#N)C(=O)Nc1ccc(C(F)(F)F)cc1", "note": "[Teriflunomide]", "values": [{"measurement": "Side effects", "setting": "MS", "value": "Gl, hair thinning,"}]}]}
